Earlier results in patent publication US20100234388A1, “SUBSTITUTED PDE5 INHIBITORS” (AUSPEX PHARMACEUTICALS, INC., priority 2006, published 2010).

Columns and labels:
[1] = tested on: PDE5 versus PDE6; conditions: compared with sildenafil and vardenafil
[2] = human, in vivo
[3] = human, in vivo; remark: listed apart in the source

CN1CC(=O)N2[C@H](c3ccc4c(c3)OCO4)c3[nH]c4ccccc4c3C[C@@H]2C1=O [tadalafil, Tadalafil]
selectivity for PDE5 versus PDE6 [1]: much more selective | patients with side effects of chromatopsia, increased sensitivity to light, and blurred vision [2]: less than 0.1% | exercise tolerance [3]: improve exercise tolerance
